Patent US9045484B2, “Inhibitors of the BMP signaling pathway” (The Brigham and Women's Hospital, Inc., priority 2008, dated 2015)
Counter-ions that a name gives are not always drawn. Like-named read-outs stand apart in the source and are kept apart here.

Key:
[1] = test system: BMP-induced phosphorylation of SMAD1/5/8; experiment: BMP4-induced phosphorylation of SMAD1/5/8, cytoblot (cellular ELISA); type: cell-based, murine; conditions: Mus musculus
Procedure: Murine pulmonary artery smooth muscle cells were isolated, explanted and cultured as previously described (see […] et al. Am. J. Physiol. Lung Cell Mol. Physiol. 280:[…], 2001) and then grown to confluence in 96 well tissue culture plates. Cells were incubated in serum-free medium for 18 h, and then incubated with recombinant BMP2, BMP4, BMP6, BMP9, GDF5, TGF-β, or Activin A ligands (R&D Systems, Minneapolis, Minn.) at varying concentrations in duplicate for 20 minutes. […] Specificity for BMP-mediated signaling was determined separately using a modification of the cellular ELISA technique assaying for the activation of SMAD2 or SMAD3 via TGF-β, or Activin A. A corresponding IC50 was calculated for the effects of these compounds upon those signaling pathways.

[2] = Plasma pharmacokinetics after single oral administration; type: in vivo; conditions: C57B16, mouse, oral 3 mg/kg
Procedure: (§1) The pharmacokinetics of compound 70 was evaluated after a single oral administration (3 mg/kg) in male C57B16 mice on a commercial rodent diet and water ad libitum prior to the study. Compound plasma levels were determined by LC-MS/MS and the pharmacokinetic parameters were determined using WinNonlin software (Pharsight Co., Mountain View, Calif.). Dosing solutions (0.6 mg/mL) were prepared in a vehicle comprising 2% hydropropyl-β-cyclodextrin in phosphate-buffered saline (PBS). Each time point (pre-dose, 15, 30, 60, 120, 240, 360, 480 and 1440 min post-dose) was dosed as N=3. Each blood sample was collected via cardiac puncture after euthanasia with CO2 and placed in chilled tubes containing sodium heparin. Samples were centrifuged at 4° C. at 13,000 rpm for 5 min followed by extracted with acetonitrile and then analyzed.
as §1, with “13.HCl” for “compound 70”

[3] = Plasma pharmacokinetics after single bolus intraperitoneal administration; type: in vivo, C57B16 mice; conditions: C57B16, mouse, Table 3, male mice, IP 3 mg/kg; for Tmax: read-out: tmax
Procedure: as §1, with “13.HCl” for “compound 70”, “bolus intraperitoneal” for “oral”, “male and female” for “male”, “(pre-dose, 5, 10,” for “(pre-dose,”, “480,” for “360, 480 and”, “N=3/sex.” for “N=3.”
The pharmacokinetics of 44.HCl and 37.HCl were evaluated after a single bolus intraperitoneal administration (3 mg/kg) in male C57B16 mice on a commercial rodent diet and water ad libitum prior to the study. Compound plasma levels were determined by LC-MS/MS and the pharmacokinetic parameters were determined using WinNonlin software (Pharsight Co., Mountain View, Calif.). Dosing solutions (0.6 mg/mL) were prepared in a vehicle comprising 2% hydropropyl-β-cyclodextrin in phosphate-buffered saline (PBS). Each time point (pre-dose, 5, 10, 15, 30, 60, 120, 240, 480, 1440 min post-dose) was dosed as
N=3/sex. Each blood sample was collected via cardiac puncture after euthanasia with CO2 and placed in chilled tubes containing sodium heparin. Samples were centrifuged at 4° C. at 13,000 rpm for 5 min followed by extracted with acetonitrile and then analyzed.

PDGFR-mediated signaling = experiment: PDGF-induced AKT phosphorylation, cellular ELISA in PaSMCs; type: cell-based, murine; conditions: Mus musculus, PASMC; compounds 10 min, then PDGF 30 min; FIG. 2; read-out: functional IC50, PDGF-induced AKT phosphorylation
Procedure: To test the relative effects of dorsomorphin and structurally-related compounds upon PDGFR-mediated signaling, PDGF-induced AKT phosphorylation was measured by cellular ELISA via the detection of phospho-AKT in PaSMCs treated with compounds for 10 min. followed by PDGF for 30 min.

[4] = Microsomal stability in pooled mouse liver microsomes; type: in vitro ADME; conditions: 0.5 mg/mL microsome protein, 1 mM NADPH
Procedure: Test compound (3 μM final concentration) along with 0.5 mg/mL microsome protein and 1 mM NADPH was incubated for 0, 5, 15, 30 and 60 min. Incubation of test compound and microsomes in the absence of NADPH served as a negative control. The samples were quenched with methanol and centrifuged for 20 min at 2500 rpm to precipitate proteins. Sample supernatants were analyzed (N=3) by LC/MS. The ln peak area ratio (compound peak area/internal standard peak area) was plotted against time and the slope of the line determined to give the elimination rate constant [k=(−1)(slope)]. The half life (t1/2 in minutes) and the in vitro intrinsic clearance (CLint in μL/min/mg protein) values were calculated according to the following equations, where V=incubation volume in μL/mg protein: […]

[5] = Serum iron levels (Ferene S assay) after IP injections; type: in vivo, C57BL/6 mice; conditions: two IP injections 10 mg/kg 12 h apart; 24 h after first injection
Procedure: In C57BL/6 mice, two IP injections of dorsomorphin (10 mg/kg) 12 h apart increased serum iron levels, measured by the Ferene S assay (ThermoFisher Scientific, Waltham, Mass.) measured 24 h after first injection by over 60%. (see FIG. 4; n=8 vehicle, n=7 dorsomorphin, P<0.001). Results are expressed as mean±SD.

[6] = test system: IL6-induced hepcidin expression in HepG2 cells; experiment: IL6-induced hepcidin expression in HepG2 hepatoma cells; type: cell-based, human; conditions: pretreatment; data not shown
Procedure: HepG2 cells pretreated with compound 13 (5-625 nM) or vehicle for 30 min. were incubated with IL6 (50 ng/mL) for 1.5 h. Cells were harvested, and hepcidin mRNA and 18S rRNA levels were measured by quantitative RT-PCR. Changes in gene expression were normalized to 18S ribosomal RNA levels using the relative cycle threshold method.

[7] = approximate IC50, cellular ELISA, murine pulmonary artery smooth muscle cells, read-out: IC50 for inhibition of BMP-induced phosphorylation of SMAD1/5/8

COc1ccc(-c2cnc3c(-c4ccncc4)cnn3c2)cc1 [4-OMe-Ph, 4-Py, H, N, N, 6-(4-Methoxyphenyl)-3-pyridin-4-yl-pyrazolo[1,5-a]pyrimidine]
IC50 [1, 7]: > 1000 nM

COc1ccc(-c2ccc3c(-c4ccnc5ccccc45)cnn3c2)cc1 [4-OMe-Ph, 4-quinolinyl, H, CH, N, 4-[6-(4-Methoxyphenyl)pyrazolo[1,5-a]pyridin-3-yl]quinoline]
IC50 [1, 7]: < 500 nM

COC(=O)c1cc(-c2ccnc3ccccc23)c2ncc(-c3ccc(OC)cc3)cn12 [4-OMe-Ph, 4-quinolinyl, H, N, CCO2Me, Methyl 3-(4-methoxyphenyl)-8-quinolin-4-yl-pyrrolo[1,2-a]pyrimidine-6-carboxylate]
IC50 [1, 7]: > 20000 nM

COc1ccc(-c2cnc3c(-c4ccnc5ccccc45)ccn3c2)cc1 [4-OMe-Ph, 4-quinolinyl, H, N, CH, 4-[3-(4-Methoxyphenyl)pyrrolo[1,2-a]pyrimidin-8-yl]quinoline]
IC50 [1, 7]: > 20000 nM

Cl.c1ccc2c(-c3cnn4cc(-c5ccc(N6CCNCC6)cc5)cnc34)ccnc2c1 [13•HCl, 4-[6-(4-piperazin-1-ylphenyl)pyrazolo[1,5-a]pyrimidin-3-yl]quinoline hydrochloride salt]
AUC(0-inf) ([2]; Table 5, male mice): 919 ng·h/mL
Cmax ([2]; Table 5, male mice): 690 nM
Tmax ([2]; Table 5, male mice): 1 h
half-life ([2]; Table 5, male mice): 1.1 h

c1ccc2c(-c3cnn4cc(-c5ccc(N6CCNCC6)cc5)ccc34)ccnc2c1 [37•HCl, 4-[6-(4-Piperazin-1-ylphenyl)pyrazolo[1,5-a]pyridin-3-yl]-quinoline]
AUC(0-inf) [3]: 207 ng·h/mL
Cmax [3]: 290 nM
half-life [3]: 2.2 h
Tmax [3]: < 0.25 h

COC1(c2ccc(-c3cnc4c(-c5ccnc6ccccc56)cnn4c3)cc2)CCNCC1 [44•HCl, 4-(6-(4-(4-methoxypiperidin-4-yl)phenyl)pyrazolo[1,5-a]pyrimidin-3-yl)quinoline]
AUC(0-inf) [3]: 583 ng·h/mL
Cmax [3]: 660 nM
half-life [3]: 1.4 h
Tmax [3]: < 0.25 h

OC1(c2ccc(-c3cnc4c(-c5ccnc6ccccc56)cnn4c3)cc2)CCNCC1 [Compound 70, 4-(4-(3-(quinolin-4-yl)pyrazolo[1,5-a]pyrimidin-6-yl)phenyl)piperidin-4-ol]
AUC(0-inf) ([2]; Table 4, male mice): 143 ng·h/mL
Cmax ([2]; Table 4, male mice): 100 nM
Tmax ([2]; Table 4, male mice): 0.25 h
half-life ([2]; Table 4, male mice): 1.7 h

c1cc(-c2cnn3cc(-c4ccc(OCCN5CCCCC5)cc4)cnc23)ccn1 [Dorsomorphin, reference compound]
IC50 ([1]; FIG. 1, approximate, read-out: functional IC50, BMP4-induced SMAD1/5/8 phosphorylation): ~400 nM
IC50 (PDGFR-mediated signaling): ~500 nM
half-life at 3 μM ([4]; read-out: half-life (t1/2) in mouse liver microsomes): 0.173 h
microsomal CLint at 3 μM ([4]; read-out: intrinsic clearance (CLint) in mouse liver microsomes): 133 ± 6.6 µL/min/mg
increase of serum iron levels [5]: over 60%

C[C@@H]1C[C@@H]([C@H](O)CC2CC(=O)NC(=O)C2)C(=O)[C@@H](C)C1 [cycloheximide, reference compound]
ability of IL6 to induce hepcidin gene expression [6]: did not block the ability of IL6 to induce hepcidin gene expression
